Experiment [1] concerns whole bone marrow cells. Description: Fibroblastic colony forming unit (CFU-f) cultures, colony numbers. The format is cell-based, rat. The protocol: Whole bone marrow cells (BMC's) were obtained from the tibias and femurs of 125 g male Wistar rats. The bones were removed under aseptic conditions and all soft adherent tissue removed. An end of each bone was removed, a hole made in the opposing end with an 18 gauge syringe needle, and the cells isolated centrifugally [Dobson K. R., et al., Calcif. tissue Int., 65:411-413 (1999)]. The cells were dispersed in 10 ml DMEM (containing 12% FCS, 1×10^−8 M dexamethasone and […] ascorbic acid) by repeated pipetting, and a single-cell suspension achieved by forcefully expelling the cells through a 20 gauge syringe needle. The cells were then used in the protocols described below. To analyse the numbers of fibroblastic-colony forming units (CFU-f) in either whole BMC or high density non-adherent stromal precursor (NASP) cell cultures, 10^6 nucleated BMC, or the non-adherent cells from the high density NASP cell cultures, were plated out on 55 cm^2 petri dishes in DMEM containing; 12% FCS, 1×10^−8 M dexamethasone and 50 μg/ml ascorbic acid. In the case of the CFU-f analysis of whole BMC, the test agents were added once at the beginning of the culture period. In the case of NASP cell cultures, the test agents were added at the beginning of the NASP cell cultures themselves and the CFU-f assay only used to assess the number of CFU-f generated during the NASP cell culture. The medium was changed after 5 days and, thereafter, twice weekly. The cultures were maintained for 18 days, after which the cells were washed with PBS and fixed, by the addition of cold ethanol. […] The cultures were then photographed using a digital camera and the APase positive, calcium positive, collagen positive and total colonies quantitated using Bioimage “Intelligent Quantifier” image analysis software [Dobson K., et al., A cost effective method for the automatic quantitative analysis of fibroblastic-colony forming units with osteoblastic potential. […]

Experiment [2] concerns bone forming cells (whole bone marrow cells, NASP cells, neonatal rat calvariae). The experiment in a line: CFU-f and NASP cell assays in combination with neonatal rat calvarial organ cultures (bone anabolic activity). It is filed as cell-based. To be noted: for bone anabolic activity: useful = equivalent activity to that of PGE2, FIGS. 4-7. The source says:
The main reason for the lack of understanding of the cellular basis for the actions of bone anabolic drugs is that there exists, at present, no single in vitro assay which responds to these drugs in an appropriate manner. However, we have now developed a number of assays which, when used in combination with neonatal rat calvarial organ cultures, are able to predict bone anabolic agents.
Whole bone marrow cells (BMC's) were obtained from the tibias and femurs of 125 g male Wistar rats. The bones were removed under aseptic conditions and all soft adherent tissue removed. An end of each bone was removed, a hole made in the opposing end with an 18 gauge syringe needle, and the cells isolated centrifugally [Dobson K. R., et al., Calcif. tissue Int., 65:411-413 (1999)]. The cells were dispersed in 10 ml DMEM (containing 12% FCS, 1×10^−8 M dexamethasone and […] ascorbic acid) by repeated pipetting, and a single-cell suspension achieved by forcefully expelling the cells through a 20 gauge syringe needle. The cells were then used in the protocols described below.
To analyse the numbers of fibroblastic-colony forming units (CFU-f) in either whole BMC or high density non-adherent stromal precursor (NASP) cell cultures, 10^6 nucleated BMC, or the non-adherent cells from the high density NASP cell cultures, were plated out on 55 cm^2 petri dishes in DMEM containing; 12% FCS, 1×10^−8 M dexamethasone and 50 μg/ml ascorbic acid. In the case of the CFU-f analysis of whole BMC, the test agents were added once at the beginning of the culture period. In the case of NASP cell cultures, the test agents were added at the beginning of the NASP cell cultures themselves and the CFU-f assay only used to assess the number of CFU-f generated during the NASP cell culture. The medium was changed after 5 days and, thereafter, twice weekly. The cultures were maintained for 18 days, after which the cells were washed with PBS and fixed, by the addition of cold ethanol.
After fixation, the cultures were stained for alkaline phosphatase (APase) positive, calcium positive, collagen positive and total colonies as described by Scutt & Bertram (J. Bone and Mineral Res. 10:474-489, 1995). The cultures were then photographed using a digital camera and the APase positive, calcium positive, collagen positive and total colonies quantitated using Bioimage “Intelligent Quantifier” image analysis software [Dobson K., et al., A cost effective method for the automatic quantitative analysis of fibroblastic-colony forming units with osteoblastic potential. Calcif. Tissue Int. 65:166-172 (1999)].
BMC were cultured at a density of 1.5×10^6 cells per 2 cm^2 well in 0.75 ml DMEM containing 12% FCS, 10^−8 M dexamethasone and 50 μg/ml ascorbic acid. Solutions of the agents to be tested were added to the wells and then cultured for 4 days. The numbers of NASP cells present in the supernatant were then quantitated as described above for CFU-f cultures. To do this, the cultures were gently agitated and the supernatants, containing the non-adherent cells, were transferred to 55 cm^2 petri dishes. 10 ml of DMEM containing 12% FCS, 1×10^−8 M dexamethasone, 50 μg/ml ascorbic acid was added and the cultures maintained further as described above for CFU-f cultures.
One day old rat pups were killed and the calvariae (skull cases) dissected out. The calvariae were then cut along the sagittal suture to give two hemicalvariae per foetus. Each bone was cultured in 2 ml DMEM containing 1 mg/ml BSA, 50 μg/ml ascorbic acid, 60 μg/ml penicillin, and 50 μg/ml streptomycin and 1×10^−8 M dexamethasone in 35 mm tissue culture wells. After 24 h, the medium was replaced with fresh medium, any test agent added, and the tissue cultured for a further 48 h.
In this assay, each bone was pulsed with 10 μCi of [^3H]proline for 24 h at the end of the culture period. The bones were washed successively in trichloroacetic acid (TCA), acetone, and ether, and then dried. […]

The test system of experiment [3] is MB-1.8 cells. To be noted: MB-1.8 cells exposed to TZD; cited from earlier work.

The text below walks through data of patent US20040171692A1, “Modulation of bone formation” (priority 2003, published 2004).

“Also recorded” adds a separate entry of the source.

As for `CC#CCC(C)[C@H](O)/C=C/[C@@H]1[C@H]2C/C(=C/CCCC(=O)O)C[C@H]2C[C@H]1O` (some centres unmarked) [iloprost], in experiment [1], the colony numbers result was “stimulation comparable with that of PGA1”.

Consider `CCCCCCCCCCCCCCCC(=O)OC` [Methyl palmitate, methyl palmitate], for which the colony numbers entry in experiment [1] is recorded as “stimulation”. For the compound `CCCCC[C@H](O)/C=C/[C@H]1C=CC(=O)[C@@H]1C/C=C\CCCC(=O)O` [PGA2], the bone anabolic activity result in experiment [2] is “useful activity”. Consider `CCCCCCCC/C=C\CCCCCCCC(=O)O` [oleic acid], for which, in experiment [2], the bone anabolic activity result is reported as “useful activity”. On to `CN(CCOc1ccc(CC2SC(=O)NC2=O)cc1)c1ccccn1` (centres unmarked) [TZD, 5-(4-{[N-methyl-N(2-pyridyl)-amino]ethoxy}benzyl)thiazolidine-2,4-dione], for which, in experiment [3], the “alkaline phosphatase activity and expression of osteoblast-associated genes” value is listed as “decrease”; the “expression of adipocyte fatty acid protein” value was “enhancing”. Consider `CCCCC[C@H](O)/C=C/[C@H]1C=CC(=O)[C@@H]1CCCCCCC(=O)O` [PGA1], for which the “response in all three assays” value in experiment [2] (alkaline phosphatase activity, calcium uptake and collagen synthesis, FIG. 1) is “positive response”. In experiment [2] (compared with PGE2, FIGS. 1-3), the “bone anabolic activity relative to PGE2” value was “comparable with that produced by PGE2; also recorded: at least as good as that of PGE2”. In experiment [1], the colony numbers result is given as “significant dose dependent increase”. For `CCCCC/C=C\C/C=C\CCCCCCCC(=O)O` [Linoleic acid, linoleic acid], the bone anabolic activity entry in experiment [2] is “showed bone anabolic activity”. Same read-out and setting: as for `c1cc2c(cc1[C@H]1OC[C@H]3[C@@H]1CO[C@@H]3c1ccc3c(c1)OCO3)OCO2` [sesamin], the entry is “useful activity”.
